# Source: ChEMBL document CHEMBL1134665, “Synthesis and antitumor activity of ester-modified analogues of bengamide B” (J Med Chem, 2001)
# Assays:
# MDA-MB-435 [1] = experiment: In vivo for percent body weight against MDA-MB-435 human breast carcinoma cells implanted sc in mice at a dose 26 umol/kg; format: functional
# MDA-MB-435 [2] = experiment: (§1) Antiproliferative activity against MDA-MB-435 human breast carcinoma cells in vitro using MDA-MB-435 monolayer growth assay.; format: functional, cell-based
# MDA-MB-435 [3] = experiment: In vivo percent T/C against MDA-MB-435 human breast carcinoma cells implanted sc in mice at a dose 26 umol/kg; format: functional
# MDA-MB-435 [4] = experiment: In vivo for percent body weight against MDA-MB-435 human breast carcinoma cells implanted sc in mice at a dose 52 umol/Kg; format: functional
# MDA-MB-435 [5] = experiment: In vivo percent T/C against MDA-MB-435 human breast carcinoma cells implanted sc in mice at a dose 52 umol/Kg; format: functional
# MDA-MB-435 [6] = experiment: In vivo percent T/C against MDA-MB-435 human breast carcinoma cells implanted sc in mice at a dose 10 umol/kg; format: functional
# MDA-MB-435 [7] = experiment: In vivo percent T/C against MDA-MB-435 human breast carcinoma cells implanted sc in mice at a dose 33 umol/Kg; format: functional
# MDA-MB-435 [8] = experiment: In vivo percent body weight versus MDA-MB-435 human breast carcinoma cells implanted sc in mice at a dose 10 umol/kg; format: functional
# MDA-MB-435 [9] = experiment: In vivo percent body weight versus MDA-MB-435 human breast carcinoma cells implanted sc in mice at a dose 33 umol/Kg; format: functional
# MDA-MB-435 [10] = experiment: as §1; format: functional
# MDA-MB-435 [11] = experiment: In vivo for percent body weight against MDA-MB-435 human breast carcinoma cells implanted sc in mice at a dose 100 umol/Kg; format: functional
# MDA-MB-435 [12] = experiment: In vivo percent T/C against MDA-MB-435 human breast carcinoma cells implanted sc in mice at a dose 100 umol/kg; format: functional
# MDA-MB-435 [13] = experiment: In vivo for percent body weight against MDA-MB-435 human breast carcinoma cells implanted sc in mice at a dose m100 umol/Kg; format: functional
# MDA-MB-435 [14] = experiment: In vivo percent T/C against MDA-MB-435 human breast carcinoma cells implanted sc in mice at a dose 100 umol/Kg; format: functional
# MDA-MB-435 [15] = experiment: In vivo for percent body weight against MDA-MB-435 human breast carcinoma cells implanted sc in mice at a dose 84 umol/kg; format: functional
# MDA-MB-435 [16] = experiment: In vivo for percent body weight against MDA-MB-435 human breast carcinoma cells implanted sc in mice at a dose 279 umol/Kg; format: functional
# MDA-MB-435 [17] = experiment: In vivo percent T/C against MDA-MB-435 human breast carcinoma cells implanted sc in mice at a dose 84 umol/Kg; format: functional
# MDA-MB-435 [18] = experiment: In vivo for percent body weight against MDA-MB-435 human breast carcinoma cells implanted sc in mice at a dose 28 umol/kg; format: functional
# MDA-MB-435 [19] = experiment: In vivo percent T/C against MDA-MB-435 human breast carcinoma cells implanted sc in mice at a dose 279 umol/Kg; format: functional
# MDA-MB-435 [20] = experiment: In vivo percent T/C against MDA-MB-435 human breast carcinoma cells implanted sc in mice at a dose 28 umol/kg; format: functional
# MDA-MB-435 [21] = experiment: In vivo percent T/C against MDA-MB-435 human breast carcinoma cells implanted sc in mice at a dose 2 umol/kg; format: functional
# MDA-MB-435 [22] = experiment: In vivo for percent body weight against MDA-MB-435 human breast carcinoma cells implanted sc in mice at a dose 2 umol/kg; format: functional
SMILES,T/C (MDA-MB-435 [6]) [%],T/C (MDA-MB-435 [7]) [%],Body weight (MDA-MB-435 [8]) [%],Body weight (MDA-MB-435 [9]) [%],IC50 (MDA-MB-435 [10]) [µM],also measured
CO[C@@H](C(=O)NC1CC[C@H](O)CN(C)C1=O)[C@H](O)[C@@H](O)[C@H](O)/C=C/C(C)C (stereo partly specified),,,,,,Body weight (MDA-MB-435 [1]): 9.5%; IC50 (MDA-MB-435 [2]): 2.9 µM; T/C (MDA-MB-435 [3]): 42%; Body weight (MDA-MB-435 [4]): 0.8%; T/C (MDA-MB-435 [5]): 41%
CO[C@@H](C(=O)NC1CC[C@@H](OC(=O)C2CCCCCC2)CNC1=O)[C@H](O)[C@@H](O)[C@H](O)/C=C/C(C)(C)C (stereo partly specified),<39,<28,10.1,8.4,0.02,
CO[C@@H](C(=O)NC1CC[C@@H](OC(=O)C2CCCCC2)CNC1=O)[C@H](O)[C@@H](O)[C@H](O)/C=C/C(C)(C)C (stereo partly specified),<58,<7,10.5,3.5,0.004,Body weight (MDA-MB-435 [11]): -2.6%; T/C (MDA-MB-435 [12]): <29%
CO[C@@H](C(=O)NC1CC[C@@H](OC(=O)CCc2ccccc2)CNC1=O)[C@H](O)[C@@H](O)[C@H](O)/C=C/C(C)(C)C (stereo partly specified),<53,<12,6,5.3,0.01,Body weight (MDA-MB-435 [13]): -3.1%; T/C (MDA-MB-435 [14]): <58%
CO[C@@H](C(=O)NC1CCCCN(C)C1=O)[C@H](O)[C@@H](O)[C@H](O)/C=C/C(C)C (stereo partly specified),,,,,,IC50 (MDA-MB-435 [2]): 2.9 µM
CCCCCCCCCCCCCOC(=O)[C@H]1CCC(NC(=O)[C@H](OC)[C@H](O)[C@@H](O)[C@H](O)/C=C/C(C)C)C(=O)NC1 (stereo partly specified),,,,,,IC50 (MDA-MB-435 [2]): 0.001 µM
CO[C@@H](C(=O)NC1CC[C@@H](OC(=O)Cc2cccnc2)CNC1=O)[C@H](O)[C@@H](O)[C@H](O)/C=C/C(C)(C)C (stereo partly specified),69,82,6.4,6.8,5.85,
CO[C@@H](C(=O)NC1CC[C@@H](OC(=O)CCc2cccnc2)CNC1=O)[C@H](O)[C@@H](O)[C@H](O)/C=C/C(C)(C)C (stereo partly specified),92,<44,10.1,3,0.46,
CCCCCCCCCCc1ccc(C(=O)O[C@@H]2CCC(NC(=O)[C@H](OC)[C@H](O)[C@@H](O)[C@H](O)/C=C/C(C)(C)C)C(=O)NC2)cc1 (stereo partly specified),76,<6,6,2.6,0.03,
CO[C@@H](C(=O)NC1CC[C@@H](OC(=O)c2ccccc2)CNC1=O)[C@H](O)[C@@H](O)[C@H](O)/C=C/C(C)(C)C (stereo partly specified),93,80,5.5,5.6,0.37,
CCCCCc1ccc(C(=O)O[C@@H]2CCC(NC(=O)[C@H](OC)[C@H](O)[C@@H](O)[C@H](O)/C=C/C(C)(C)C)C(=O)NC2)cc1 (stereo partly specified),111,91,6,2.6,0.02,
CO[C@@H](C(=O)NC1CC[C@@H](OC(=O)C2CCCC2)CNC1=O)[C@H](O)[C@@H](O)[C@H](O)/C=C/C(C)(C)C (stereo partly specified),67,<13,7.6,3,0.13,
CO[C@@H](C(=O)NC1CC[C@@H](OC(=O)/C=C/c2ccccc2)CNC1=O)[C@H](O)[C@@H](O)[C@H](O)/C=C/C(C)(C)C (stereo partly specified),<64,<63,7.4,7.5,0.02,
CCCCCCCCCCCCCC(=O)O[C@H]1CCC(NC(=O)[C@H](OC)[C@H](O)[C@@H](O)[C@H](O)/C=C/C(C)(C)C)C(=O)N(C)C1 (stereo partly specified),<58,<46,6.1,6.4,0.01,
CCCCCCCCCCOc1ccc(C(=O)O[C@@H]2CCC(NC(=O)[C@H](OC)[C@H](O)[C@@H](O)[C@H](O)/C=C/C(C)(C)C)C(=O)NC2)cc1 (stereo partly specified),<64,2,8.8,-0.9,0.01,
CO[C@@H](C(=O)NC1CC[C@@H](OC(=O)CC2CCCCC2)CNC1=O)[C@H](O)[C@@H](O)[C@H](O)/C=C/C(C)(C)C (stereo partly specified),<47,<34,4.6,3.5,0.06,
CO[C@@H](C(=O)NC1CC[C@@H](OC(=O)Cc2ccccc2)CNC1=O)[C@H](O)[C@@H](O)[C@H](O)/C=C/C(C)(C)C (stereo partly specified),72,<43,10.6,3.9,0.26,
CCCCCCCCCCCCCC(=O)O[C@@H]1CCC(NC(=O)[C@H](OC)[C@H](O)[C@@H](O)[C@H](O)/C=C/C(C)(C)C)C(=O)NC1 (stereo partly specified),<41,<4,7.4,5.7,< 0.01,
CO[C@@H](C(=O)NC1CCCCNC1=O)[C@H](O)[C@@H](O)[C@H](O)/C=C/C(C)C (stereo partly specified),,,,,,Body weight (MDA-MB-435 [15]): 7.1%; IC50 (MDA-MB-435 [2]): 3.3 µM; Body weight (MDA-MB-435 [16]): 6.7%; T/C (MDA-MB-435 [17]): 62%; Body weight (MDA-MB-435 [18]): 8.4%; T/C (MDA-MB-435 [19]): <19%; T/C (MDA-MB-435 [20]): 62%
COc1cccc2c1C(=O)c1c(O)c3c(c(O)c1C2=O)C[C@@](O)(C(=O)CO)C[C@@H]3O[C@H]1C[C@H](N)[C@H](O)[C@H](C)O1 [DOXORUBICIN],,,,,0.4,T/C (MDA-MB-435 [21]): <44%; Body weight (MDA-MB-435 [22]): 3.9%
